The target of one experiment is T1, CDK6 (Homo sapiens, UniProt Q00534+Q96SW2).
T1 construct: expression of target proteins in cells; endogenous in cells
In words: Western blot degradation of CDK6. The experiment is classed as cell-based. The note with it: MDA-MB-231 Cell; 24 hours. How it is done:
(§1) Conventional Western blot assay was performed to evaluate the effects of the compounds of the present disclosure on the expression of target proteins in cells.
(§2) (1) Cell Seeding and Protein Harvesting: The selected cells were processed according to the cell seeding procedure and protein harvesting procedure in Table II-2.
(§3) (2) To the collected supernatant, 5×SDS sample loading buffer was added, followed by denaturation at 95 °C for 5 minutes. The denatured samples were then separated by SDS-PAGE electrophoresis on a polyacrylamide gel. Proteins were transferred to a nitrocellulose membrane (0.45 μm NC membrane), blocked with blocking buffer at room temperature for 1 hour, and subjected to antibody incubation and development procedures according to the antibody manufacturer's instructions (Cell Signaling Technology).
(§4) Half-Maximal Degradation Concentration value (the drug concentration required for degrading proteins by 50%, abbreviated as DC50) reads method: comparing the grayscale values of Western blot bands from drug-treated samples with those from blank DMSO-treated controls, and identifying the drug concentration range at which the grayscale value is half that of the DMSO-treated control bands.
(§5) DC50 values can be calculated using ImageJ software to measure grayscale values of Western blot bands from drug-treated samples. The concentration-response curve is fitted to estimate the drug concentration corresponding to half the grayscale value.
(§6) Target protein remaining (%) refers to the percentage of target protein remaining in cells after treatment with protein degrader compounds.
(§7) Calculation method for target protein remaining (%): Use ImageJ software to measure grayscale values of Western blot bands from drug (protein degrader)-treated samples. The grayscale value of drug-treated bands is divided by that of internal control protein bands, and the resulting quotient is normalized to obtain the relative percentage of remaining target protein after protein degrader treatment.
(§8) Target protein degradation rate (%)=1−target protein remaining (%).
For orientation: In western blotting, separated proteins are transferred to a membrane and probed.

Experiment [1] has as its system Human lung cancer cell line (H292). In words: Inhibition of H292 cell proliferation (CellTiter luminescent viability). The experiment is classed as cell-based. To be noted: NCI-H292, Table IE2, CDK4/6 inhibitor-based, 96 hours; for inhibition at 0.01 µM: H292, 10 nM, read-out: Inhibition Rate at 10 nM (%); for inhibition at 0.5 µM: H292, 500 nM, read-out: Inhibition Rate at 500 nM (%).

The target of another experiment is T2, CDK4 (Homo sapiens, UniProt P11802+Q96SW2).
T2 construct: expression of target proteins in cells; endogenous in cells
T2 sequence (P11802 whole entry): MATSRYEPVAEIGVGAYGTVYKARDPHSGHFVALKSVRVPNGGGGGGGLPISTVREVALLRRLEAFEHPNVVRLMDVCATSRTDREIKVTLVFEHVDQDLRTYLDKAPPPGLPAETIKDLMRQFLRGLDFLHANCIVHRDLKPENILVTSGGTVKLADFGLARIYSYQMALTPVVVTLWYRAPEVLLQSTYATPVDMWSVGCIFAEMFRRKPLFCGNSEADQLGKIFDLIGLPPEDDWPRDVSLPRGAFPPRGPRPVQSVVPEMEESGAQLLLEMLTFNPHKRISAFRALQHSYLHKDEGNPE
T2 sequence (Q96SW2 whole entry): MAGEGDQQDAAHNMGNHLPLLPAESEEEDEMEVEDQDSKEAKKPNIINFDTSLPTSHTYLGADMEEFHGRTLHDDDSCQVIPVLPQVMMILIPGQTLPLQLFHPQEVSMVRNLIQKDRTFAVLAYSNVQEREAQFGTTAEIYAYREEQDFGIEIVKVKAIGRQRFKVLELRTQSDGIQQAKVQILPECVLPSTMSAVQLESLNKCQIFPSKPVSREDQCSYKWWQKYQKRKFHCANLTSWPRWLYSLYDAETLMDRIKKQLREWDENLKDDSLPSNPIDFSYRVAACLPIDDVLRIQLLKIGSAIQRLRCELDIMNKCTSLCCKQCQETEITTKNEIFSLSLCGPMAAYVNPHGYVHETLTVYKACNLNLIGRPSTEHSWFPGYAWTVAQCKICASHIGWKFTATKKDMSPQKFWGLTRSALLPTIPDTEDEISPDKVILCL
T2 sequence (Q16531 whole entry partner): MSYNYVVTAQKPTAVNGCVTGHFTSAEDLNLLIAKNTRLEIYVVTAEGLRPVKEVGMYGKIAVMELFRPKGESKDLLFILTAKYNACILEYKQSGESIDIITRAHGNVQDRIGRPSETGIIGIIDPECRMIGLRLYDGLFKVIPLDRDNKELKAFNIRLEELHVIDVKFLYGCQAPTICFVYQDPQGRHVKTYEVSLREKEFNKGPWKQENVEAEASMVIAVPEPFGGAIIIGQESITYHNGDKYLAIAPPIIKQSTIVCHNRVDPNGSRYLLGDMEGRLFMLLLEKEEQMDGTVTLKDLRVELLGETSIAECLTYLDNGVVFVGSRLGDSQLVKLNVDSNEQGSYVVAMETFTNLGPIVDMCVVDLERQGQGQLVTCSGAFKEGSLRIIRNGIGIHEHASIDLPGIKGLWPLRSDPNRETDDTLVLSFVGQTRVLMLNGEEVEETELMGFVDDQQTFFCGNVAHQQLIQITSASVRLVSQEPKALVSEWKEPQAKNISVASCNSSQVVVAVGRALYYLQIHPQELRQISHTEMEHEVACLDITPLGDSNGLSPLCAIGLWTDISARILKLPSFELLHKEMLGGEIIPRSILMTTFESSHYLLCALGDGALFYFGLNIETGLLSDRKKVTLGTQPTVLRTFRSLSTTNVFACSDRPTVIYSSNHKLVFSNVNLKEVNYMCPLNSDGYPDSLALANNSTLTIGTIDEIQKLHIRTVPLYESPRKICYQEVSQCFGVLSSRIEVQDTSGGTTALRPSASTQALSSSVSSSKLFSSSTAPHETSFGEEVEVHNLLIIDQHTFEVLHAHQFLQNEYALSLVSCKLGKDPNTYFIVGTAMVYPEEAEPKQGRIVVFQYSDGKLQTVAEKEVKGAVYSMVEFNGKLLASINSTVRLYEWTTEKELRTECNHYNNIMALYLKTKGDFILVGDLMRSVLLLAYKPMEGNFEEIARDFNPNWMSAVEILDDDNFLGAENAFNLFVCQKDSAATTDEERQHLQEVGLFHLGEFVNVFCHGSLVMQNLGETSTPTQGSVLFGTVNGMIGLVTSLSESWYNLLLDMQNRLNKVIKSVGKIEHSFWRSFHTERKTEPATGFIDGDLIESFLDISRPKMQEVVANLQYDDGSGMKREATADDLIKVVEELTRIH
In words: Western blot degradation of CDK4. It counts as cell-based. The note with it: MDA-MB-231 Cell; 24 hours. The protocol:
as §1, §2, §3, §4, §5, §6, §7, §8

Experiment [2] relates to Human myeloid monocytic leukemia cell line (MV-4-11). Description: Inhibition of MV-4-11 cell proliferation (CellTiter luminescent viability). The experiment is classed as cell-based. To be noted: Homo sapiens, MV4-11, Table IE3, CDK4/6 inhibitor-based, 96 hours. The essentials: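 Cells are seeded in 96-well plates, cultured at 37 °C, 5% CO2, and treated next day with 5-fold serial compound dilutions (stock series from 2000 μM; 0.5 μL into 100 μL medium). Viability is read by CellTiter-Meiluncell luminescence after the set exposure, and IC50 is taken from growth-inhibition curves.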

Experiment [3] deals with T3, human Cereblon WT GST-tagged protein (CRBN) (Homo sapiens, UniProt Q96SW2).
T3 construct: purchased CISBIO 64BDCRBNPEH
T3 sequence (Q96SW2 whole entry): as the sequence (Q96SW2 whole entry) above
In words: CRBN binding by HTRF (Cereblon binding kit). Put shortly:
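GST-tagged human Cereblon WT was incubated 3 h at room temperature with compound, thalidomide-Re tracer and Eu anti-GST antibody. Final compound concentrations were 10 to 0.00064 µM (7 points) or 2 and 0.5 µM. Inhibition rate was calculated from HTRF 665/620 nm ratios versus solvent and blank controls.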
On the technique in general: Time-resolved FRET reads energy transfer from a long-lived donor to a nearby acceptor.

T1 sequence (Q00534 whole entry): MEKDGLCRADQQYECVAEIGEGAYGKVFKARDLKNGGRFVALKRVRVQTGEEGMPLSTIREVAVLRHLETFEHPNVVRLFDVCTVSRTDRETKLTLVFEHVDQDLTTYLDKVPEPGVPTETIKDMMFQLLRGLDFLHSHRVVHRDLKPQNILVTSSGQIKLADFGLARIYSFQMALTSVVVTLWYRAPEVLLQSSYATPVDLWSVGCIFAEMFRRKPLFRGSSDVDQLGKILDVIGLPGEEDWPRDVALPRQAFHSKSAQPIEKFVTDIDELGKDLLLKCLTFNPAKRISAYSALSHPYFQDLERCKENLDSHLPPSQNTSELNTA
T1 sequence (Q96SW2 whole entry): as the sequence (Q96SW2 whole entry) above
T1 sequence (Q16531 whole entry partner): as the sequence (Q16531 whole entry partner) above

In the case of `CN(C)C(=O)c1cc2cnc(Nc3ccc(N4CCC(CN5CCN(c6cc7c(cc6F)C(=O)N(N6CCC(=O)NC6=O)C7=O)CC5)CC4)cn3)nc2n1C1CCCC1` [GT-05199, 7-cyclopentyl-2-((5-(4-((4-(2-(2,4-dioxotetrahydropyrimidin-1(2H)-yl)-6-fluoro-1,3-dioxoisoindolin-5-yl)piperazin-1-yl)methyl)piperidin-1-yl)pyridin-2-yl)amino)-N,N-dimethyl-7H-pyrrolo[2,3-d]pyrimidine-6-carboxamide], the “Degradation of substrate protein CDK6 (substrate protein remaining %)” value on CDK6 is “A (0%≤substrate protein remaining %≤80%)”. In addition, in experiment [1], the inhibition – broadly, the change of the read-out against control, counted positive when it falls – at 0.01 µM fell in the range of 40 to 60% and the inhibition at 0.5 µM lay within 35 to 40%. In addition, the “Degradation of substrate protein CDK4 (substrate protein remaining %)” value on CDK4 is given as “B (80%<substrate protein remaining %≤100%)”.
Take `CN(C)C(=O)c1cc2cnc(Nc3ccc(N4CCN(Cc5ccc6c(c5)C(=O)N(N5CCC(=O)NC5=O)C6=O)CC4)cn3)nc2n1C1CCCC1` [GT-06336, 7-cyclopentyl-2-((5-(4-((2-(2,4-dioxotetrahydropyrimidin-1(2H)-yl)-1,3-dioxoisoindolin-5-yl)methyl)piperazin-1-yl)pyridin-2-yl)amino)-N,N-dimethyl-7H-pyrrolo[2,3-d]pyrimidine-6-carboxamide]: on CDK6, the “Degradation of substrate protein CDK6 (substrate protein remaining %)” value is given as “B (80%<substrate protein remaining %≤100%)”. Besides, the “Degradation of substrate protein CDK4 (substrate protein remaining %)” value at CDK4 is reported as “A (0%≤substrate protein remaining %≤80%)”.
For `CN(C)C(=O)c1cc2cnc(Nc3ccc(N4CCN(CC5CCN(c6ccc7c(c6)C(=O)N(N6CCC(=O)NC6=O)C7=O)CC5)CC4)cn3)nc2n1C1CCCC1` [GT-06337, 7-cyclopentyl-2-((5-(4-((1-(2-(2,4-dioxotetrahydropyrimidin-1(2H)-yl)-1,3-dioxoisoindolin-5-yl)piperidin-4-yl)methyl)piperazin-1-yl)pyridin-2-yl)amino)-N,N-dimethyl-7H-pyrrolo[2,3-d]pyrimidine-6-carboxamide] the same measures were “A (0%≤substrate protein remaining %≤80%)” and “B (80%<substrate protein remaining %≤100%)”.
With `CN(C)C(=O)c1cc2cnc(Nc3ccc(N4CCN(CC5CCN(c6cccc7c6C(=O)N(N6CCC(=O)NC6=O)C7=O)CC5)CC4)cn3)nc2n1C1CCCC1` [GT-06338, 7-cyclopentyl-2-((5-(4-((1-(2-(2,4-dioxotetrahydropyrimidin-1(2H)-yl)-1,3-dioxoisoindolin-4-yl)piperidin-4-yl)methyl)piperazin-1-yl)pyridin-2-yl)amino)-N,N-dimethyl-7H-pyrrolo[2,3-d]pyrimidine-6-carboxamide], the “Degradation of substrate protein CDK6 (substrate protein remaining %)” value on CDK6 is reported as “A (0%≤substrate protein remaining %≤80%)”. Also, in experiment [1], the inhibition at 0.01 µM lay in the range of 30 to 35% and the inhibition at 0.5 µM fell in the range of 40 to 60%. Moreover, the “Degradation of substrate protein CDK4 (substrate protein remaining %)” value on CDK4 was “A (0%≤substrate protein remaining %≤80%)”.
`CN(C)C(=O)c1cc2cnc(Nc3ccc(N4CCC(N(C)Cc5ccc6c(c5)C(=O)N(N5CCC(=O)NC5=O)C6=O)CC4)cn3)nc2n1C1CCCC1` [GT-06488, 7-cyclopentyl-2-((5-(4-(((2-(2,4-dioxotetrahydropyrimidin-1(2H)-yl)-1,3-dioxoisoindolin-5-yl)methyl)(methyl)amino)piperidin-1-yl)pyridin-2-yl)amino)-N,N-dimethyl-7H-pyrrolo[2,3-d]pyrimidine-6-carboxamide]: on CDK6, the “Degradation of substrate protein CDK6 (substrate protein remaining %)” value is “A (0%≤substrate protein remaining %≤80%)”. The “Degradation of substrate protein CDK4 (substrate protein remaining %)” value on CDK4 is given as “B (80%<substrate protein remaining %≤100%)”.
For the compound `CN(C)C(=O)c1cc2cnc(Nc3ccc(N4CCC(N5CCN(Cc6ccc7c(c6)CN(N6CCC(=O)NC6=O)C7=O)CC5)CC4)cn3)nc2n1C1CCCC1` [GT-06497, 7-cyclopentyl-2-((5-(4-(4-((2-(2,4-dioxotetrahydropyrimidin-1(2H)-yl)-1-oxoisoindolin-5-yl)methyl)piperazin-1-yl)piperidin-1-yl)pyridin-2-yl)amino)-N,N-dimethyl-7H-pyrrolo[2,3-d]pyrimidine-6-carboxamide], at CDK6, the “Degradation of substrate protein CDK6 (substrate protein remaining %)” value is “A (0%≤substrate protein remaining %≤80%)”. The “Degradation of substrate protein CDK4 (substrate protein remaining %)” value at CDK4 was “A (0%≤substrate protein remaining %≤80%)”.
Turning to `CN(C)C(=O)c1cc2cnc(Nc3ccc(N4CCC(N5CCN(Cc6ccc7c(c6)C(=O)N(N6CCC(=O)NC6=O)C7=O)CC5)CC4)cn3)nc2n1C1CCCC1` [GT-06498, 7-cyclopentyl-2-((5-(4-(4-((2-(2,4-dioxotetrahydropyrimidin-1(2H)-yl)-1,3-dioxoisoindolin-5-yl)methyl)piperazin-1-yl)piperidin-1-yl)pyridin-2-yl)amino)-N,N-dimethyl-7H-pyrrolo[2,3-d]pyrimidine-6-carboxamide], the “Degradation of substrate protein CDK6 (substrate protein remaining %)” value at CDK6 is given as “A (0%≤substrate protein remaining %≤80%)”. Besides, at CDK4, the “Degradation of substrate protein CDK4 (substrate protein remaining %)” value was “A (0%≤substrate protein remaining %≤80%)”.
Regarding `CC(=O)c1c(C)c2cnc(Nc3ccc(N4CCC(N(C)Cc5ccc6c(c5)CN(N5CCC(=O)NC5=O)C6=O)CC4)cn3)nc2n(C2CCCC2)c1=O` [GT-06586, 1-(5-(((1-(6-((6-acetyl-8-cyclopentyl-5-methyl-7-oxo-7,8-dihydropyrido[2,3-d]pyrimidin-2-yl)amino)pyridin-3-yl)piperidin-4-yl)(methyl)amino)methyl)-1-oxoisoindolin-2-yl)dihydropyrimidine-2,4 (1H,3H)-dione], on CDK6, the “Degradation of substrate protein CDK6 (substrate protein remaining %)” value is “A (0%≤substrate protein remaining %≤80%)”. For the same compound, at CDK4, the “Degradation of substrate protein CDK4 (substrate protein remaining %)” value is “A (0%≤substrate protein remaining %≤80%)”. In addition, the inhibition at 0.01 µM in experiment [2] (MV-4-11, 10 nM, read-out: Inhibition Rate at 10 nM (%)) was in the range of 25 to 30%. The inhibition at 0.5 µM in experiment [2] (MV-4-11, 500 nM, read-out: Inhibition Rate at 500 nM (%)) is 40 to 60%.
On to `Cc1nc2c(F)cc(-c3nc(Nc4ccc(CN5CCN(CC6CCN(c7ccc8c(c7)C(=O)N(N7CCC(=O)NC7=O)C8=O)CC6)CC5)cn4)ncc3F)cc2n1C(C)C` [GT-06662, 2-(2,4-dioxotetrahydropyrimidin-1(2H)-yl)-5-(4-((4-((6-((5-fluoro-4-(4-fluoro-1-isopropyl-2-methyl-1H-benzo[d]imidazol-6-yl)pyrimidin-2-yl)amino)pyridin-3-yl)methyl)piperazin-1-yl)methyl)piperidin-1-yl)isoindoline-1,3-dione], for which the “Degradation of substrate protein CDK6 (substrate protein remaining %)” value at CDK6 is reported as “A (0%≤substrate protein remaining %≤80%)”. Besides, the inhibition at 0.5 µM in experiment [3] (0.5 μM, read-out: Inhibition Rate at 0.5 μM (%)) fell in the range of 30 to 40%. Further, in experiment [3] (2 μM, read-out: Inhibition Rate at 2 μM (%)), the inhibition at 2 µM was 53 to 60%. The “Degradation of substrate protein CDK4 (substrate protein remaining %)” value at CDK4 is on record as “B (80%<substrate protein remaining %≤100%)”.
As for `Cc1nc2c(F)cc(-c3nc(Nc4ccc(N5CCN(Cc6ccc7c(c6)C(=O)N(N6CCC(=O)NC6=O)C7=O)CC5)cn4)ncc3F)cc2n1C(C)C` [GT-06673, 2-(2,4-dioxotetrahydropyrimidin-1(2H)-yl)-5-((4-(6-((5-fluoro-4-(4-fluoro-1-isopropyl-2-methyl-1H-benzo[d]imidazol-6-yl)pyrimidin-2-yl)amino)pyridin-3-yl)piperazin-1-yl)methyl)isoindoline-1,3-dione], on CDK6, the “Degradation of substrate protein CDK6 (substrate protein remaining %)” value is “A (0%≤substrate protein remaining %≤80%)”. Moreover, the “Degradation of substrate protein CDK4 (substrate protein remaining %)” value on CDK4 is reported as “B (80%<substrate protein remaining %≤100%)”.
With `Cc1nc2c(F)cc(-c3nc(Nc4ccc(N5CCC(N(C)Cc6ccc7c(c6)C(=O)N(N6CCC(=O)NC6=O)C7=O)CC5)cn4)ncc3F)cc2n1C(C)C` [GT-06732, 2-(2,4-dioxotetrahydropyrimidin-1(2H)-yl)-5-(((1-(6-((5-fluoro-4-(4-fluoro-1-isopropyl-2-methyl-1H-benzo[d]imidazol-6-yl)pyrimidin-2-yl)amino)pyridin-3-yl)piperidin-4-yl)(methyl)amino)methyl)isoindoline-1,3-dione], on CDK6, the “Degradation of substrate protein CDK6 (substrate protein remaining %)” value is reported as “A (0%≤substrate protein remaining %≤80%)”. Besides, on CDK4, the “Degradation of substrate protein CDK4 (substrate protein remaining %)” value is “B (80%<substrate protein remaining %≤100%)”.

The values are drawn from patent US20260364184A1, “COMPOUND BASED ON OXOISOINDOLINYL-SUBSTITUTED TETRAHYDROPYRIMIDINE-DIONE AND USE THEREOF” (GLUETACS THERAPEUTICS (SHANGHAI) CO., LTD., priority 2023, published 2026).
